In PubChem BioAssay (NCI):
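Five concentrations, 48 hours, 96-well plates. TGI denotes the concentration required for complete inhibition of growth.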

Experiments:
Test in all cases: growth of human tumour cells (NCI), 48 h
A498 renal = test system: A498 renal
CCRF-CEM leukemia = test system: CCRF-CEM leukemia
RXF 393 renal = test system: RXF 393 renal
ACHN renal = test system: ACHN renal
COLO 205 colon = test system: COLO 205 colon
DU-145 prostate = test system: DU-145 prostate
HCC-2998 colon = test system: HCC-2998 colon
U251 CNS = test system: U251 CNS
HCT-15 colon = test system: HCT-15 colon
MALME-3M melanoma = test system: MALME-3M melanoma

## Cc1nc2c(Br)cc(Br)cc2c(=O)n1-c1ccccc1NC1OC(CO)C(O)C(O)C1O (centres undefined)
A498 renal
  TGI: > 100 µM
CCRF-CEM leukemia
  TGI: > 100 µM
RXF 393 renal
  TGI: > 100 µM
ACHN renal
  TGI: > 100 µM
COLO 205 colon
  TGI: > 100 µM
DU-145 prostate
  TGI: > 100 µM
HCC-2998 colon
  TGI: > 100 µM
U251 CNS
  TGI: > 100 µM
HCT-15 colon
  TGI: > 100 µM
MALME-3M melanoma
  TGI: > 100 µM

## Clc1ccc2c(c1)N(CCCN1CCCC13CCCCC3)c1ccccc1S2
A498 renal
  TGI: 33.2 µM
CCRF-CEM leukemia
  TGI: 28.3 µM
RXF 393 renal
  TGI: 17.6 µM
ACHN renal
  TGI: 47.5 µM
COLO 205 colon
  TGI: > 54.9 µM
DU-145 prostate
  TGI: 34.2 µM
HCC-2998 colon
  TGI: 8.64 µM
U251 CNS
  TGI: 23.6 µM
HCT-15 colon
  TGI: 42.5 µM
MALME-3M melanoma
  TGI: 28.1 µM

## COC(=N)C1(C#N)NC(c2ccsc2)C(C#N)(C#N)NC1c1ccsc1 (centres undefined)
A498 renal
  TGI: > 100 µM
CCRF-CEM leukemia
  TGI: > 100 µM
RXF 393 renal
  TGI: > 100 µM
ACHN renal
  TGI: > 100 µM
COLO 205 colon
  TGI: > 100 µM
DU-145 prostate
  TGI: > 100 µM
HCC-2998 colon
  TGI: > 100 µM
U251 CNS
  TGI: > 100 µM
HCT-15 colon
  TGI: > 100 µM
MALME-3M melanoma
  TGI: > 100 µM

## C=C(NC(=O)C(=C)NC(=O)c1ccc2c(n1)-c1coc(n1)C(=C)NC(=O)C(=C)NC(=O)c1nc(oc1C)C(=C)NC(=O)C(C(C)(C)O)NC(=O)C(=C)NC(=O)c1coc(n1)/C(=C/C)NC(=O)[C@H]([C@@H](C)O)NC(=O)c1csc-2n1)C(N)=O (some centres undefined)
A498 renal
  TGI: > 87.5 µM
CCRF-CEM leukemia
  TGI: > 87.5 µM
RXF 393 renal
  TGI: > 87.5 µM
ACHN renal
  TGI: > 87.5 µM
COLO 205 colon
  TGI: > 87.5 µM
DU-145 prostate
  TGI: > 87.5 µM
HCC-2998 colon
  TGI: > 87.5 µM
U251 CNS
  TGI: > 87.5 µM
HCT-15 colon
  TGI: > 87.5 µM
MALME-3M melanoma
  TGI: > 87.5 µM

## CC(=O)NC1C(OCc2ccccc2)OC(CO)C(O)C1OC(C)C(=O)N[C@@H](C)C(=O)N[C@H](CCC(=O)NCCNCCNc1c2ccccc2nc2cccc([N+](=O)[O-])c12)C(N)=O (some centres undefined)
A498 renal
  TGI: 0.32 µM
CCRF-CEM leukemia
  TGI: > 100 µM
RXF 393 renal
  TGI: 0.0844 µM
ACHN renal
  TGI: 0.512 µM
COLO 205 colon
  TGI: 0.198 µM
DU-145 prostate
  TGI: 0.231 µM
HCC-2998 colon
  TGI: 0.072 µM
U251 CNS
  TGI: 3.41 µM
HCT-15 colon
  TGI: 1.63 µM
MALME-3M melanoma
  TGI: 0.221 µM

## CC(C)(C)C1CCC2c3c([nH]c4ccccc34)C3C(=O)N(c4ccc([N+](=O)[O-])cc4)C(=O)C3C2C1 (centres undefined)
A498 renal
  TGI: 79.4 µM
CCRF-CEM leukemia
  TGI: > 100 µM
RXF 393 renal
  TGI: 23.6 µM
ACHN renal
  TGI: > 100 µM
COLO 205 colon
  TGI: 21.1 µM
DU-145 prostate
  TGI: > 100 µM
HCC-2998 colon
  TGI: 27.4 µM
U251 CNS
  TGI: 38.5 µM
HCT-15 colon
  TGI: > 100 µM
MALME-3M melanoma
  TGI: 43.7 µM

## COc1cc2c(cc1OC)C(=O)N(c1ccc(OCCN3CCCC3)cc1)C2
A498 renal
  TGI: > 100 µM
CCRF-CEM leukemia
  TGI: > 100 µM
RXF 393 renal
  TGI: > 100 µM
ACHN renal
  TGI: > 100 µM
COLO 205 colon
  TGI: > 100 µM
DU-145 prostate
  TGI: > 100 µM
HCC-2998 colon
  TGI: > 100 µM
U251 CNS
  TGI: > 100 µM
HCT-15 colon
  TGI: > 100 µM
MALME-3M melanoma
  TGI: > 100 µM

## FC1=C2C3CCC(C3)C2C1(F)F (centres undefined)
A498 renal
  TGI: > 100 µM
CCRF-CEM leukemia
  TGI: > 100 µM
RXF 393 renal
  TGI: > 100 µM
ACHN renal
  TGI: > 100 µM
COLO 205 colon
  TGI: > 100 µM
DU-145 prostate
  TGI: > 100 µM
HCC-2998 colon
  TGI: > 100 µM
U251 CNS
  TGI: > 100 µM
HCT-15 colon
  TGI: > 100 µM
MALME-3M melanoma
  TGI: > 100 µM

## CC(C)(CO[C@H]1C[C@H]2CC[C@@]1(C)C2(C)C)[N+](=O)[O-]
A498 renal
  TGI: 51.8 µM
CCRF-CEM leukemia
  TGI: > 100 µM
RXF 393 renal
  TGI: 26.1 µM
ACHN renal
  TGI: > 100 µM
COLO 205 colon
  TGI: 31.4 µM
DU-145 prostate
  TGI: 49.2 µM
HCC-2998 colon
  TGI: 5.19 µM
U251 CNS
  TGI: 31.5 µM
HCT-15 colon
  TGI: 51.6 µM
MALME-3M melanoma
  TGI: 40.3 µM

## COC1CC(C)(NC(=O)C(F)(F)F)C2OC(c3ccccc3)OCC2O1 (centres undefined)
A498 renal
  TGI: > 100 µM
CCRF-CEM leukemia
  TGI: > 100 µM
RXF 393 renal
  TGI: > 100 µM
ACHN renal
  TGI: > 100 µM
COLO 205 colon
  TGI: > 100 µM
DU-145 prostate
  TGI: > 100 µM
U251 CNS
  TGI: > 100 µM
HCT-15 colon
  TGI: > 100 µM
MALME-3M melanoma
  TGI: > 100 µM

## CN1CCN(C(=O)c2cn(Cc3cncn3Cc3ccc4c(c3)OCO4)cc2-c2cccc3ccccc23)CC1
A498 renal
  TGI: 32.1 µM
CCRF-CEM leukemia
  TGI: > 77.2 µM
RXF 393 renal
  TGI: > 100 µM
ACHN renal
  TGI: > 100 µM
COLO 205 colon
  TGI: 49.9 µM
DU-145 prostate
  TGI: > 100 µM
HCC-2998 colon
  TGI: 27 µM
U251 CNS
  TGI: > 100 µM
HCT-15 colon
  TGI: > 100 µM
MALME-3M melanoma
  TGI: 26.6 µM

## CC(O)c1nc(C#N)c(N)o1 (centres undefined)
A498 renal
  TGI: > 100 µM
CCRF-CEM leukemia
  TGI: > 100 µM
ACHN renal
  TGI: > 100 µM
COLO 205 colon
  TGI: > 100 µM
DU-145 prostate
  TGI: > 100 µM
U251 CNS
  TGI: > 100 µM
MALME-3M melanoma
  TGI: > 100 µM

## Cc1cn(CCCCCCOC(=O)NC(CCCNC(N)=O)C(=O)O)c(=O)[nH]c1=O (centres undefined)
A498 renal
  TGI: > 100 µM
CCRF-CEM leukemia
  TGI: > 100 µM
RXF 393 renal
  TGI: > 100 µM
ACHN renal
  TGI: > 100 µM
COLO 205 colon
  TGI: > 100 µM
DU-145 prostate
  TGI: > 100 µM
HCC-2998 colon
  TGI: > 100 µM
U251 CNS
  TGI: > 100 µM
HCT-15 colon
  TGI: > 100 µM

## CCN1CC2(C)CCC(OC)C34C5CC6CCC(O)(C5C(=O)O6)C(C(O)C23)C14 (centres undefined)
A498 renal
  TGI: > 100 µM
CCRF-CEM leukemia
  TGI: > 100 µM
RXF 393 renal
  TGI: > 100 µM
ACHN renal
  TGI: > 100 µM
COLO 205 colon
  TGI: > 100 µM
DU-145 prostate
  TGI: > 100 µM
U251 CNS
  TGI: > 100 µM
HCT-15 colon
  TGI: > 100 µM
MALME-3M melanoma
  TGI: > 100 µM

## CC1=C(C)C(=O)C(C2=CC(=O)c3ccccc3C2=O)=C(C2=CC(=O)c3ccccc3C2=O)C1=O
A498 renal
  TGI: 50.8 µM
RXF 393 renal
  TGI: 22.4 µM
ACHN renal
  TGI: 14.9 µM
COLO 205 colon
  TGI: 9.77 µM
DU-145 prostate
  TGI: 12.5 µM
HCC-2998 colon
  TGI: 19.8 µM
U251 CNS
  TGI: > 45.3 µM
HCT-15 colon
  TGI: > 100 µM
MALME-3M melanoma
  TGI: 4.33 µM

## CCN(CC)C(=S)SC(C(=O)Nc1nnc(-c2ccc(Cl)cc2)o1)c1ccccc1 (centres undefined)
A498 renal
  TGI: 41.4 µM
CCRF-CEM leukemia
  TGI: 9.82 µM
RXF 393 renal
  TGI: 48.8 µM
ACHN renal
  TGI: 26.3 µM
COLO 205 colon
  TGI: 14.5 µM
DU-145 prostate
  TGI: 94 µM
HCC-2998 colon
  TGI: 16.9 µM
U251 CNS
  TGI: 65.3 µM
HCT-15 colon
  TGI: 18.9 µM
MALME-3M melanoma
  TGI: 32.7 µM

## O=C(O)c1c(CC(Cc2ccc3c(c2)CCC3)C(=O)O)ccc2c1CCC2 (centres undefined)
A498 renal
  TGI: > 100 µM
CCRF-CEM leukemia
  TGI: > 100 µM
ACHN renal
  TGI: > 100 µM
COLO 205 colon
  TGI: > 100 µM
DU-145 prostate
  TGI: > 100 µM
HCC-2998 colon
  TGI: > 100 µM
U251 CNS
  TGI: > 100 µM
HCT-15 colon
  TGI: > 100 µM
MALME-3M melanoma
  TGI: > 100 µM

## N#Cc1nc(CCc2nc(C#N)c(N)o2)oc1N
CCRF-CEM leukemia
  TGI: > 10 µM
RXF 393 renal
  TGI: > 10 µM
ACHN renal
  TGI: > 10 µM
COLO 205 colon
  TGI: > 10 µM
DU-145 prostate
  TGI: > 10 µM
HCC-2998 colon
  TGI: > 10 µM
HCT-15 colon
  TGI: > 10 µM
MALME-3M melanoma
  TGI: > 10 µM

## COC(=O)[C@]1(c2cc3ccccc3n2S(=O)(=O)c2ccccc2)CC2CN(C(=O)OCc3ccccc3)C1C1OC(C)(C)OC21 (some centres undefined)
CCRF-CEM leukemia
  TGI: > 100 µM
RXF 393 renal
  TGI: > 100 µM
ACHN renal
  TGI: > 100 µM
COLO 205 colon
  TGI: > 100 µM
DU-145 prostate
  TGI: > 100 µM
HCC-2998 colon
  TGI: > 100 µM
U251 CNS
  TGI: > 100 µM
HCT-15 colon
  TGI: > 100 µM
MALME-3M melanoma
  TGI: > 100 µM

## CSC(SC)=C(C(=O)c1ccc(Cl)cc1)n1c(=O)sc2cc(Br)ccc21
A498 renal
  TGI: > 100 µM
CCRF-CEM leukemia
  TGI: > 100 µM
RXF 393 renal
  TGI: > 100 µM
ACHN renal
  TGI: > 100 µM
COLO 205 colon
  TGI: > 100 µM
DU-145 prostate
  TGI: > 100 µM
HCC-2998 colon
  TGI: > 100 µM
U251 CNS
  TGI: > 100 µM
HCT-15 colon
  TGI: > 100 µM
MALME-3M melanoma
  TGI: > 100 µM

## COc1cc(CCNC2=CC(=O)c3nc[nH]c3C2=O)ccc1O
A498 renal
  TGI: 71 µM
CCRF-CEM leukemia
  TGI: > 100 µM
RXF 393 renal
  TGI: > 100 µM
ACHN renal
  TGI: > 100 µM
COLO 205 colon
  TGI: 56.5 µM
DU-145 prostate
  TGI: 34.6 µM
HCC-2998 colon
  TGI: 43 µM
U251 CNS
  TGI: 63.3 µM
HCT-15 colon
  TGI: > 100 µM
MALME-3M melanoma
  TGI: 26.1 µM
